Test results: PubChem BioAssay AID1963446 (Molecular Pharmacology Branch, DTP, NCI, 2024)
pIC50: −log10 of the molar value. Values joined by “and” are separate entries in the source; they are usually repeats but may differ in a detail not shown here. Equal entries are not always repeated.

System: 993429-296-R-J1-PDC complex spheroid growth, percent test/control
Experiment: Anticancer human tumor 993429-296-R-J1-PDC patient-derived uterine sarcoma cell line growth inhibition [Asc]
Conditions: for viability, T/C: stronger effect = lower value; active = viability on the fitted dose curve at most 10% of control; inactive = the rest
Protocol: Multicellular complex tumor spheroid response to apoptosis pathway targeting inhibitors Alrizomadlin, Pelcitoclax, and Dasminapant in combination with a variety of drugs and investigational agents in selected tumor cell lines
The MDM2 inhibitor alrizomadlin, the Bcl-2/Bcl-xL inhibitor pelcitoclax, and the IAPs inhibitor dasminapant were evaluated both individually and in combination with standard of care and investigational anticancer small molecules within a complex spheroid model of solid tumors. . Complex spheroids include a stromal component modeled by human endothelial cells (HUVEC) and fibroblasts modeled by human mesenchymal stem cells (MSCs). The concentration ranges selected for each drug and investigational agent were based upon clinically achievable concentrations if the clinical Cmax of the agent was known.
Compounds. The drugs and investigational agents: alrizomadlin (APG-115; NSC831270), pelcitoclax (APG-1252; NSC835773), dasminapant (APG-1387;NSC834197), TAK-243 (NSC785004), copanlisib (NSC809693), olaparib (NSC753686), talazoparib (NSC767125), cobimetinib (NSC 768068), eltanexor (KPT-8602, NSC 794443), abemaciclib (NSC 768073), sotorasib (NSC818433), adagrasib (NSC 831453), MRTX-1133 (NSC 836407), Iadademestat (ORY1001, NSC 806812), and RMC-4630 (NSC839698), were obtained from the NCI Developmental Therapeutics Program Chemical Repository. The FDA-approved anticancer drug set is available from the Developmental Therapeutics Program at https://dtp.cancer.gov/organization/dscb/obtaining/available plates.htm. […] The stock solutions were prepared in dimethyl sulfoxide (DMSO, Sigma-Aldrich, St. Louis, MO, cat. D2650) at 800-fold the tested concentration and stored at -70 degrees C prior to their use. All drugs and investigational agents were tested over a range starting from a high concentration at or near the clinical Cmax and decreasing in half-log increments. If the clinical Cmax for an agent had not been determined, the highest concentration tested was 10 microM.
The patient-derived cancer (PDC) cell lines include five colon adenocarcinomas: 186277-243-T-J2-PDC, 616215-338-R-J1-PDC, 439559-082-T-J2-PDC, 463943-066-T-J2-PDC, and 519858-162-T-J1-PDC; three pancreatic carcinomas: 323965-272-R-J2-PDC, 521955-158-R6-J3-PDC, and 521955-158-R2-J5-PDC; two uterine sarcomas: 327498-152-R-J2-PDC and 993429-296-R-J1-PDC; two rhabdomyosarcomas: 755483-174-R-J1-PDC and 772245-204-R-J1-PDC; two soft tissue sarcomas: 126254-015-R-J1-PDC and 494315-158-R-J1-PDC; two malignant fibrous histiocytomas: 317291-083-R-J1-PDC and 596521-263-R-J1-PDC; two breast carcinomas: 171881-019-R-J1-PDC and 885512-296-R-J2-PDC; and one ovarian carcinoma: 6556581-035-R-J-PDC were obtained from the NCI PDMR, (https://pdmr.cancer.gov). The established cell lines HSSY-2 synovial sarcoma (RRID:CVCL 8719), SYO-1 synovial sarcoma (RRID:CVCL_7146), MPNST malignant peripheral neural sheath tumor were obtained from the Sloan Kettering Institute. The following established cell lines were purchased from the American Type Culture Collection (ATCC, Manassas, VA), Sor the received from the NCI repository:, PANC-1 pancreatic carcinoma (CRL-1469, RRID:CVCL_0480), OVCAR-5 ovarian carcinoma (RRID:CVCL_1628), OVCAR-8 ovarian carcinoma (RRID:CVCL_1629), , MCF-7 breast carcinoma (CRL-12584, RRID:CVCL_0031), MDA-MB-231 breast carcinoma (CRL-12532, RRID:CVCL_0062), NCI-H1876 small cell lung carcinoma (CRL-5902, RRID:CVCL_1503), NCI-H510A small cell lung carcinoma (HTB-184, RRID:CVCL_1565), NCI-H1417 (CRL-5869, RRID:CVCL_1469), and NCI-H196 small cell lung carcinoma (CRL-5823, RRID:CVCL_1509). Dr. Peter Houghton (Greehey Children's Cancer Research Institute, University of Texas Health Science Center, San Antonio, TX) provided Rh-18 rhabdomyosarcoma (RRID:CVCL_1659). Pooled donor human umbilical vein endothelial cells (HUVEC, Lonza, cat. CC-2519) and human mesenchymal stem cells (hMSC, Lonza, cat. PT-2501) were purchased from Lonza (Walkersville, MD).
Cell Culture. […]
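Also: spheroids exposed to compounds for seven days.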

NC(=O)C(=Cn1cnc(-c2cc(C(F)(F)F)cc(C(F)(F)F)c2)n1)c1cncnc1
inactive: viability, T/C (compound 0.000949 µM) 94.3% and 102% and 110% | viability, T/C (compound 0.003 µM) 82.4% and 87.5% and 105% | viability, T/C (compound 0.00949 µM) 76.6% and 76% and 91.7% | viability, T/C (compound 0.03 µM) 41.9% and 34.6% and 60.8% | viability, T/C (compound 0.0949 µM) 17% and 17.8% and 30.1%
8.93% and 7.15% and 11.8%: viability, T/C (compound 0.3 µM)
7.64 and 7.70 and 7.34: pIC50 (curve of compound)

O=C(c1ccc(F)c(F)c1Nc1ccc(I)cc1F)N1CC(O)([C@@H]2CCCCN2)C1 + Cc1c(S(C)(=O)=O)c(-c2cc(F)cc(N3CCN(c4ccc(NS(=O)(=O)c5ccc(NC(CCN6CCC(C(=O)OCCCP(=O)(O)O)CC6)CSc6ccccc6)c(S(=O)(=O)C(F)(F)F)c5)cc4)CC3)c2)c(-c2ccc(Cl)cc2)n1C(C)C
8.12: pIC50 (curve of first compound, second compound 0.1 µM)
7.80: pIC50 (curve of first compound, second compound 10 µM)
8.02: pIC50 (curve of first compound, second compound 0.316 µM)
> 8.50: pIC50 (curve of first compound, second compound 3.16 µM)
8.35: pIC50 (curve of first compound, second compound 1 µM)
inactive: viability, T/C (second compound 0.1 µM, first compound 0.00316 µM) 63% | viability, T/C (second compound 0.1 µM, first compound 0.01 µM) 42.8% | viability, T/C (second compound 0.1 µM, first compound 0.0316 µM) 31.9% | viability, T/C (second compound 0.1 µM, first compound 0.1 µM) 10.2% | viability, T/C (second compound 0.316 µM, first compound 0.00316 µM) 55.9% | viability, T/C (second compound 0.316 µM, first compound 0.01 µM) 52.7% | viability, T/C (second compound 0.316 µM, first compound 0.0316 µM) 29.1% | viability, T/C (second compound 0.316 µM, first compound 0.1 µM) 15.3% | viability, T/C (second compound 1 µM, first compound 0.00316 µM) 57.6% | viability, T/C (second compound 1 µM, first compound 0.01 µM) 30.8% | viability, T/C (second compound 1 µM, first compound 0.0316 µM) 19.3% | viability, T/C (second compound 3.16 µM, first compound 0.00316 µM) 39.2% | viability, T/C (second compound 3.16 µM, first compound 0.01 µM) 30.8% | viability, T/C (second compound 3.16 µM, first compound 0.0316 µM) 21.1% | viability, T/C (second compound 10 µM, first compound 0.00316 µM) 72% | viability, T/C (second compound 10 µM, first compound 0.01 µM) 68.7% | viability, T/C (second compound 10 µM, first compound 0.0316 µM) 21.6%
active: viability, T/C (second compound 0.1 µM, first compound 0.316 µM) 1.93% | viability, T/C (second compound 0.1 µM, first compound 1 µM) 0.33% | viability, T/C (second compound 0.316 µM, first compound 0.316 µM) 1.67% | viability, T/C (second compound 0.316 µM, first compound 1 µM) 0.23% | viability, T/C (second compound 1 µM, first compound 0.1 µM) 5.07% | viability, T/C (second compound 1 µM, first compound 0.316 µM) 0.22% | viability, T/C (second compound 1 µM, first compound 1 µM) 0.14% | viability, T/C (second compound 3.16 µM, first compound 0.1 µM) 2.83% | viability, T/C (second compound 3.16 µM, first compound 0.316 µM) 0.52% | viability, T/C (second compound 3.16 µM, first compound 1 µM) 0.18% | viability, T/C (second compound 10 µM, first compound 0.1 µM) 3.49% | viability, T/C (second compound 10 µM, first compound 0.316 µM) 0.84% | viability, T/C (second compound 10 µM, first compound 1 µM) 0.16%

Cn1ncnc1[C@H]1c2n[nH]c(=O)c3cc(F)cc(c23)N[C@@H]1c1ccc(F)cc1 + CCN1C(C(=O)NC23CCC(C(=O)O)(CC2)CC3)C(c2cccc(Cl)c2F)C2(C(=O)Nc3cc(Cl)ccc32)C12CCCCC2
7.18: pIC50 (curve of first compound, second compound 3 µM)
< 7.00: pIC50 (curve of first compound, second compound 0.03 µM) | pIC50 (curve of first compound, second compound 0.949 µM)
inactive: viability, T/C (second compound 0.03 µM, first compound 0.000316 µM) 114% | viability, T/C (second compound 0.03 µM, first compound 0.001 µM) 107% | viability, T/C (second compound 0.03 µM, first compound 0.00316 µM) 104% | viability, T/C (second compound 0.03 µM, first compound 0.01 µM) 62% | viability, T/C (second compound 0.03 µM, first compound 0.0316 µM) 62% | viability, T/C (second compound 0.03 µM, first compound 0.1 µM) 45.1% | viability, T/C (second compound 0.0949 µM, first compound 0.000316 µM) 94% | viability, T/C (second compound 0.0949 µM, first compound 0.001 µM) 102% | viability, T/C (second compound 0.0949 µM, first compound 0.00316 µM) 89.4% | viability, T/C (second compound 0.0949 µM, first compound 0.01 µM) 73.6% | viability, T/C (second compound 0.0949 µM, first compound 0.0316 µM) 64.6% | viability, T/C (second compound 0.0949 µM, first compound 0.1 µM) 45.4% | viability, T/C (second compound 0.3 µM, first compound 0.000316 µM) 96.5% | viability, T/C (second compound 0.3 µM, first compound 0.001 µM) 104% | viability, T/C (second compound 0.3 µM, first compound 0.00316 µM) 90.6% | viability, T/C (second compound 0.3 µM, first compound 0.01 µM) 77.3% | viability, T/C (second compound 0.3 µM, first compound 0.0316 µM) 66% | viability, T/C (second compound 0.3 µM, first compound 0.1 µM) 41.4% | viability, T/C (second compound 0.949 µM, first compound 0.000316 µM) 109% | viability, T/C (second compound 0.949 µM, first compound 0.001 µM) 101% | viability, T/C (second compound 0.949 µM, first compound 0.00316 µM) 92.3% | viability, T/C (second compound 0.949 µM, first compound 0.01 µM) 65.1% | viability, T/C (second compound 0.949 µM, first compound 0.0316 µM) 59.9% | viability, T/C (second compound 0.949 µM, first compound 0.1 µM) 48% | viability, T/C (second compound 3 µM, first compound 0.000316 µM) 91.5% | viability, T/C (second compound 3 µM, first compound 0.001 µM) 91.8% | viability, T/C (second compound 3 µM, first compound 0.00316 µM) 82.8% | viability, T/C (second compound 3 µM, first compound 0.01 µM) 72.5% | viability, T/C (second compound 3 µM, first compound 0.0316 µM) 61.5% | viability, T/C (second compound 3 µM, first compound 0.1 µM) 43.9%
7.12: pIC50 (curve of first compound, second compound 0.0949 µM)
7.19: pIC50 (curve of first compound, second compound 0.3 µM)

O=C(c1cc(Cc2n[nH]c(=O)c3ccccc23)ccc1F)N1CCN(C(=O)C2CC2)CC1
5.31 and 5.13 and 5.07: pIC50 (curve of compound)
inactive: viability, T/C (compound 0.0316 µM) 83.4% and 99.6% and 106% | viability, T/C (compound 0.1 µM) 84.4% and 88.2% and 103% | viability, T/C (compound 0.316 µM) 90.3% and 89.3% and 93% | viability, T/C (compound 1 µM) 72.8% and 82.6% and 105% | viability, T/C (compound 3.16 µM) 67.7% and 68.7% and 83.8% | viability, T/C (compound 10 µM) 25.3% and 43% and 44.8%
